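Step 1: Grow cells in 96-well plates. Step 2: Expose to compound for 48 hours at 5 concentrations. Step 3: Interpolate endpoints linearly; if unreached, use highest concentration. At the GI50, growth is halved. TGI: concentration producing complete growth inhibition.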
How the values were obtained:
Assay in all cases: DTP human tumour cell line panel, 48 h
SR leukemia = tested on: SR leukemia
HCT-116 colon = tested on: HCT-116 colon
K-562 leukemia = tested on: K-562 leukemia
SK-MEL-28 melanoma = tested on: SK-MEL-28 melanoma
RPMI-8226 leukemia = tested on: RPMI-8226 leukemia
COLO 205 colon = tested on: COLO 205 colon
SN12C renal = tested on: SN12C renal
EKVX NSCLC = tested on: EKVX NSCLC
UACC-257 melanoma = tested on: UACC-257 melanoma
A549 NSCLC = tested on: A549 NSCLC
SNB-19 CNS = tested on: SNB-19 CNS
HOP-92 NSCLC = tested on: HOP-92 NSCLC
HCT-15 colon = tested on: HCT-15 colon
SK-MEL-5 melanoma = tested on: SK-MEL-5 melanoma
CCRF-CEM leukemia = tested on: CCRF-CEM leukemia
HT29 colon = tested on: HT29 colon
OVCAR-5 ovarian = tested on: OVCAR-5 ovarian
OVCAR-8 ovarian = tested on: OVCAR-8 ovarian
HS 578T breast = tested on: HS 578T breast
DU-145 prostate = tested on: DU-145 prostate
ACHN renal = tested on: ACHN renal
UO-31 renal = tested on: UO-31 renal
NCI/ADR-RES ovarian = tested on: NCI/ADR-RES ovarian
SF-295 CNS = tested on: SF-295 CNS
CAKI-1 renal = tested on: CAKI-1 renal
OVCAR-4 ovarian = tested on: OVCAR-4 ovarian
M14 melanoma = tested on: M14 melanoma
KM12 colon = tested on: KM12 colon
HCC-2998 colon = tested on: HCC-2998 colon
SK-OV-3 ovarian = tested on: SK-OV-3 ovarian
NCI-H226 lung = tested on: NCI-H226 lung
NCI-H522 lung = tested on: NCI-H522 lung
TK-10 renal = tested on: TK-10 renal
IGROV1 ovarian = tested on: IGROV1 ovarian
HL-60(TB) leukemia = tested on: HL-60(TB) leukemia
SK-MEL-2 melanoma = tested on: SK-MEL-2 melanoma
T-47D breast = tested on: T-47D breast
MCF7 breast = tested on: MCF7 breast
UACC-62 melanoma = tested on: UACC-62 melanoma
A498 renal = tested on: A498 renal
U251 CNS = tested on: U251 CNS
SNB-75 CNS = tested on: SNB-75 CNS
MALME-3M melanoma = tested on: MALME-3M melanoma
RXF 393 renal = tested on: RXF 393 renal
MDA-MB-468 breast = tested on: MDA-MB-468 breast
PC-3 prostate = tested on: PC-3 prostate
MOLT-4 leukemia = tested on: MOLT-4 leukemia
786-0 renal = tested on: 786-0 renal
OVCAR-3 ovarian = tested on: OVCAR-3 ovarian
NCI-H23 lung = tested on: NCI-H23 lung
SF-539 CNS = tested on: SF-539 CNS
MDA-MB-231 breast = tested on: MDA-MB-231 breast
BT-549 breast = tested on: BT-549 breast
MDA-MB-435 = tested on: MDA-MB-435
NCI-H460 lung = tested on: NCI-H460 lung
HOP-62 NSCLC = tested on: HOP-62 NSCLC
LOX IMVI melanoma = tested on: LOX IMVI melanoma
SW-620 colon = tested on: SW-620 colon
SF-268 CNS = tested on: SF-268 CNS

Cc1ccc(-c2nc(C#N)c(S(=O)(=O)N3CCN(S(=O)(=O)c4ccccc4)CC3)o2)cc1
GI50 (SR leukemia): > 100 µM
TGI (SR leukemia): > 100 µM
GI50 (HCT-116 colon): > 100 µM
TGI (HCT-116 colon): > 100 µM
GI50 (K-562 leukemia): > 100 µM
TGI (K-562 leukemia): > 100 µM
GI50 (SK-MEL-28 melanoma): > 100 µM
TGI (SK-MEL-28 melanoma): > 100 µM
GI50 (RPMI-8226 leukemia): > 100 µM
TGI (RPMI-8226 leukemia): > 100 µM
GI50 (COLO 205 colon): > 100 µM
TGI (COLO 205 colon): > 100 µM
GI50 (SN12C renal): > 100 µM
TGI (SN12C renal): > 100 µM
GI50 (EKVX NSCLC): > 100 µM
TGI (EKVX NSCLC): > 100 µM
GI50 (UACC-257 melanoma): > 100 µM
TGI (UACC-257 melanoma): > 100 µM
GI50 (A549 NSCLC): > 100 µM
TGI (A549 NSCLC): > 100 µM
GI50 (SNB-19 CNS): > 100 µM
TGI (SNB-19 CNS): > 100 µM
GI50 (HOP-92 NSCLC): > 100 µM
TGI (HOP-92 NSCLC): > 100 µM
GI50 (HCT-15 colon): > 100 µM
TGI (HCT-15 colon): > 100 µM
GI50 (SK-MEL-5 melanoma): > 100 µM
TGI (SK-MEL-5 melanoma): > 100 µM
GI50 (CCRF-CEM leukemia): > 100 µM
TGI (CCRF-CEM leukemia): > 100 µM
GI50 (HT29 colon): > 100 µM
TGI (HT29 colon): > 100 µM
GI50 (OVCAR-5 ovarian): > 100 µM
TGI (OVCAR-5 ovarian): > 100 µM
GI50 (OVCAR-8 ovarian): > 100 µM
TGI (OVCAR-8 ovarian): > 100 µM
GI50 (HS 578T breast): > 100 µM
TGI (HS 578T breast): > 100 µM
GI50 (DU-145 prostate): > 100 µM
TGI (DU-145 prostate): > 100 µM
GI50 (ACHN renal): > 100 µM
TGI (ACHN renal): > 100 µM
GI50 (UO-31 renal): > 100 µM
TGI (UO-31 renal): > 100 µM
GI50 (NCI/ADR-RES ovarian): > 100 µM
TGI (NCI/ADR-RES ovarian): > 100 µM
GI50 (SF-295 CNS): > 100 µM
TGI (SF-295 CNS): > 100 µM
GI50 (CAKI-1 renal): > 100 µM
TGI (CAKI-1 renal): > 100 µM
GI50 (OVCAR-4 ovarian): > 100 µM
TGI (OVCAR-4 ovarian): > 100 µM
GI50 (M14 melanoma): > 100 µM
TGI (M14 melanoma): > 100 µM
GI50 (KM12 colon): > 100 µM
TGI (KM12 colon): > 100 µM
GI50 (HCC-2998 colon): > 100 µM
TGI (HCC-2998 colon): > 100 µM
GI50 (SK-OV-3 ovarian): > 100 µM
TGI (SK-OV-3 ovarian): > 100 µM
GI50 (NCI-H226 lung): > 100 µM
TGI (NCI-H226 lung): > 100 µM
GI50 (NCI-H522 lung): > 100 µM
TGI (NCI-H522 lung): > 100 µM
GI50 (TK-10 renal): > 100 µM
TGI (TK-10 renal): > 100 µM
GI50 (IGROV1 ovarian): > 100 µM
TGI (IGROV1 ovarian): > 100 µM
GI50 (HL-60(TB) leukemia): > 100 µM
TGI (HL-60(TB) leukemia): > 100 µM
GI50 (SK-MEL-2 melanoma): > 100 µM
TGI (SK-MEL-2 melanoma): > 100 µM
GI50 (T-47D breast): > 100 µM
TGI (T-47D breast): > 100 µM
GI50 (MCF7 breast): > 100 µM
TGI (MCF7 breast): > 100 µM
GI50 (UACC-62 melanoma): > 100 µM
TGI (UACC-62 melanoma): > 100 µM
GI50 (A498 renal): > 100 µM
TGI (A498 renal): > 100 µM
GI50 (U251 CNS): > 100 µM
TGI (U251 CNS): > 100 µM
GI50 (SNB-75 CNS): > 100 µM
TGI (SNB-75 CNS): > 100 µM
GI50 (MALME-3M melanoma): > 100 µM
TGI (MALME-3M melanoma): > 100 µM
GI50 (RXF 393 renal): > 100 µM
TGI (RXF 393 renal): > 100 µM
GI50 (MDA-MB-468 breast): > 100 µM
TGI (MDA-MB-468 breast): > 100 µM
GI50 (PC-3 prostate): > 100 µM
TGI (PC-3 prostate): > 100 µM
GI50 (MOLT-4 leukemia): > 100 µM
TGI (MOLT-4 leukemia): > 100 µM
GI50 (786-0 renal): > 100 µM
TGI (786-0 renal): > 100 µM
GI50 (OVCAR-3 ovarian): > 100 µM
TGI (OVCAR-3 ovarian): > 100 µM
GI50 (NCI-H23 lung): > 100 µM
TGI (NCI-H23 lung): > 100 µM
GI50 (SF-539 CNS): > 100 µM
TGI (SF-539 CNS): > 100 µM
GI50 (MDA-MB-231 breast): > 100 µM
TGI (MDA-MB-231 breast): > 100 µM
GI50 (BT-549 breast): > 100 µM
TGI (BT-549 breast): > 100 µM
GI50 (MDA-MB-435): > 100 µM
TGI (MDA-MB-435): > 100 µM
GI50 (NCI-H460 lung): > 100 µM
TGI (NCI-H460 lung): > 100 µM
GI50 (HOP-62 NSCLC): > 100 µM
TGI (HOP-62 NSCLC): > 100 µM
GI50 (LOX IMVI melanoma): > 100 µM
TGI (LOX IMVI melanoma): > 100 µM
GI50 (SW-620 colon): > 100 µM
TGI (SW-620 colon): > 100 µM
GI50 (SF-268 CNS): > 100 µM
TGI (SF-268 CNS): > 100 µM

Reference: PubChem BioAssay (NCI)
